According to patent publication US11254668B2, “Pyrazolo[1,5-A]pyrazin-4-yl and related derivatives” (Pfizer Inc., priority 2017, dated 2022):
Where two headings read alike, the source gives them in different places.

Key:
Format in all cases: biochemical
JAK3 = JAK3 (Homo sapiens (Human), UniProt P52333); test: JAK Caliper Enzyme Assay at 1 mM ATP, JAK3
Procedure, shortened: (§1)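 Recombinant human kinase domains phosphorylated a fluorescent synthetic peptide at room temperature, with enzyme level and time tuned to 20% to 30% conversion; EDTA stop buffer ended reactions. Mobility-shift separation gave percent product from peak heights, normalised to DMSO and positive controls, and IC50s came from concentration–effect curves.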

TYK2 = TYK2 (Homo sapiens (Human), UniProt P29597); test: JAK Caliper Enzyme Assay at 1 mM ATP, TYK2
Procedure, shortened: (§2)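 First, compound was incubated at room temperature with recombinant human kinase domain, a synthetic peptide and 1 mM ATP until 20–30% of peptide was phosphorylated. Next, EDTA stopped the reaction. Finally, electrophoretic separation quantified product, and percent effect relative to controls was plotted against concentration.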

JAK1 = JAK1 (Homo sapiens (Human), UniProt P23458); test: JAK Caliper Enzyme Assay at 1 mM ATP, JAK1
Procedure, shortened: as §1

JAK2 = JAK2 (Homo sapiens (Human), UniProt O60674); test: JAK Caliper Enzyme Assay at 1 mM ATP, JAK2
Procedure, shortened: as §2

Sequence of JAK1 (P23458 875-1153): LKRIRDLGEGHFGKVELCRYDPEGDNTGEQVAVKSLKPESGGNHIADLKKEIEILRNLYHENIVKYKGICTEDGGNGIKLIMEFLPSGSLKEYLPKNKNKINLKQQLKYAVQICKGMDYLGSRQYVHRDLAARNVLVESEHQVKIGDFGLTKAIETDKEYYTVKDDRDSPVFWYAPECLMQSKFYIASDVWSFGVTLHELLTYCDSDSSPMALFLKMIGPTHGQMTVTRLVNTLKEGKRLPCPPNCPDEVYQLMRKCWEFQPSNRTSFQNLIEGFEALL
Sequence of TYK2 (P29597 897-1176): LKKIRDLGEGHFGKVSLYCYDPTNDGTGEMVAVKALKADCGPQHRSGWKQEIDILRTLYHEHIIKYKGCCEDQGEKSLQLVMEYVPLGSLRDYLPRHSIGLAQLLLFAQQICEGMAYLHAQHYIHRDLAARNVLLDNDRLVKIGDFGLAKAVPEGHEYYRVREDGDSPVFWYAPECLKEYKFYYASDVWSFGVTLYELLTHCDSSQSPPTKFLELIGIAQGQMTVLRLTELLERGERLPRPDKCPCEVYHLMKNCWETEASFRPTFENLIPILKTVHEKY
Sequence of JAK2 (O60674 849-1124): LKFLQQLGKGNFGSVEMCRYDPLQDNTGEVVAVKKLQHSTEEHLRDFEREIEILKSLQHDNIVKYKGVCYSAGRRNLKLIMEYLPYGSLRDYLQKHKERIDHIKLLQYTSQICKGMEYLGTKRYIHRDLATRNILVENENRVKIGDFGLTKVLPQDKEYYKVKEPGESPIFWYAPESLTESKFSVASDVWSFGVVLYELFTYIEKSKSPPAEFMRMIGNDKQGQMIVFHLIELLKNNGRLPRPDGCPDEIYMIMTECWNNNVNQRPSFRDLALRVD
Sequence of JAK3 (P52333 822-1111): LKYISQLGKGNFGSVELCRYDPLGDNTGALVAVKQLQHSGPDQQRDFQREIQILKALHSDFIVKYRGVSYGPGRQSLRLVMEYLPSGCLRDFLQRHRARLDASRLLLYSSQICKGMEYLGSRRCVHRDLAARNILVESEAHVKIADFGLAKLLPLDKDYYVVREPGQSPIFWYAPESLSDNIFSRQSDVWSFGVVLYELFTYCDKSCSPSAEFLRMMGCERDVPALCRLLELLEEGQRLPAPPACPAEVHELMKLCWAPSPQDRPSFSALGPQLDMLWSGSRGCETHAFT

| IC50 (JAK3) [nM] | IC50 (TYK2) [nM] | IC50 (JAK1) [nM] | IC50 (JAK2) [nM] | IC50 (JAK3; JAK Caliper enzyme assay) [nM] | IC50 (TYK2; JAK Caliper enzyme assay) [nM] | IC50 (JAK1; JAK Caliper enzyme assay) [nM] | IC50 (JAK2; JAK Caliper enzyme assay) [nM] | Compound |
| --- | --- | --- | --- | --- | --- | --- | --- | --- |
| > 10000 | 49 | 1340 | 778 |  |  |  |  | CO[C@H]1C[C@@](CC#N)(n2ccc(-c3nc(-c4ccc(=O)[nH]c4)cc4ncccc34)n2)C1 [Example 247, (cis-3-methoxy-1-{3-[7-(6-oxo-1,6-dihydropyridin-3-yl)-1,6-naphthyridin-5-yl]-1H-pyrazol-1-yl}cyclobutyl)acetonitrile] |
|  |  |  |  | > 10000 | 90 | 4020 | 682 | CCn1cc(-c2cc(-c3cnn(C4(CC#N)CN(S(C)(=O)=O)C4)n3)c3cccnc3c2)ccc1=O [Example 413, [3-{4-[7-(1-ethyl-6-oxo-1,6-dihydropyridin-3-yl)quinolin-5-yl]-2H-1,2,3-triazol-2-yl}-1-(methylsulfonyl)azetidin-3-yl]acetonitrile] |
| > 10000 | 103 | 2660 | 938 |  |  |  |  | N#CC[C@]1(n2ncc(-c3cc(-c4ccc(N)nc4)cc4ncccc34)n2)C[C@H](C#N)C1 [Example 365, trans-3-{4-[7-(6-aminopyridin-3-yl)quinolin-5-yl]-2H-1,2,3-triazol-2-yl}-3-(cyanomethyl)cyclobutanecarbonitrile] |
|  |  |  |  | > 10000 | 54 | 6000 | 859 | Cc1ncc(-c2cc(-c3cnn([C@]4(CC#N)C[C@H](C#N)C4)c3)n3ccnc3c2)[nH]1 [Example 465, cis-3-(cyanomethyl)-3-{4-[7-(2-methyl-1H-imidazol-5-yl)imidazo[1,2-a]pyridin-5-yl]-1H-pyrazol-1-yl}cyclobutanecarbonitrile] |
|  |  |  |  | > 10000 | 73 | 2700 | 1260 | N#CC[C@]1(n2cc(-c3cc(-c4c[nH]nc4N)cc4nccn34)cn2)C[C@@H](C#N)C1 [Example 466, cis-3-{4-[7-(3-amino-1H-pyrazol-4-yl)imidazo[1,2-a]pyridin-5-yl]-1H-pyrazol-1-yl}-3-(cyanomethyl)cyclobutanecarbonitrile] |
| > 10000 | 6840 | > 10000 | > 10000 |  |  |  |  | N#CC[C@]1(n2ncc(-c3cc(-c4cccnc4N)cc4ncccc34)n2)C[C@H](C#N)C1 [Example 363, trans-3-{4-[7-(2-aminopyridin-3-yl)quinolin-5-yl]-2H-1,2,3-triazol-2-yl}-3-(cyanomethyl)cyclobutanecarbonitrile] |
|  |  |  |  | 6700 | 20 | 352 | 116 | N#CC[C@]1(n2ncc(-c3cc(-c4ccc(C(N)=O)cc4)cc4ncccc34)n2)C[C@H](C#N)C1 [Example 433, 4-(5-{2-[cis-3-cyano-1-(cyanomethyl)cyclobutyl]-2H-1,2,3-triazol-4-yl}quinolin-7-yl)benzamide] |
| > 10000 | 36 | 8370 | 146 |  |  |  |  | Cn1cc(-c2cc(-c3cnn([C@]4(CC#N)C[C@@H](C#N)C4)n3)c3cccnc3c2)nn1 [Example 339, trans-3-(cyanomethyl)-3-{4-[7-(1-methyl-1H-1,2,3-triazol-4-yl)quinolin-5-yl]-2H-1,2,3-triazol-2-yl}cyclobutanecarbonitrile] |
|  |  |  |  | > 10000 | 110 | 7470 | 291 | N#CC[C@]1(n2ncc(-c3cc(-c4cnc5ncccn45)cc4ncccc34)n2)C[C@@H](C#N)C1 [Example 417, cis-3-(cyanomethyl)-3-{4-[7-(imidazo[1,2-a]pyrimidin-3-yl)quinolin-5-yl]-2H-1,2,3-triazol-2-yl}cyclobutanecarbonitrile] |
|  |  |  |  | > 10000 | 1210 | > 10000 | > 10000 | CS(=O)(=O)N1CC(CC#N)(n2ncc(-c3cc(-c4ccccc4O)cc4ncccc34)n2)C1 [Example 437, [3-{4-[7-(2-hydroxyphenyl)quinolin-5-yl]-2H-1,2,3-triazol-2-yl}-1-(methylsulfonyl)azetidin-3-yl]acetonitrile] |
|  |  |  |  | > 10000 | 2840 | > 10000 | 9840 | N#CC[C@]1(n2ncc(-c3cc(-c4cncnc4)cc4ncccc34)n2)C[C@@H](C#N)C1 [Example 391, cis-3-(cyanomethyl)-3-{4-[7-(pyrimidin-5-yl)quinolin-5-yl]-2H-1,2,3-triazol-2-yl}cyclobutanecarbonitrile] |

Second part, the compound before the results:

| Compound | IC50 (JAK3) [nM] | IC50 (TYK2) [nM] | IC50 (JAK1) [nM] | IC50 (JAK2) [nM] | IC50 (JAK3; JAK Caliper enzyme assay) [nM] | IC50 (TYK2; JAK Caliper enzyme assay) [nM] | IC50 (JAK1; JAK Caliper enzyme assay) [nM] | IC50 (JAK2; JAK Caliper enzyme assay) [nM] |
| --- | --- | --- | --- | --- | --- | --- | --- | --- |
| N#CC[C@]1(n2ccc(-c3nc(-c4cc5n(n4)CCNC5)cc4ncccc34)n2)C[C@H](C#N)C1 [Example 73, trans-3-(cyanomethyl)-3-{3-[7-(4,5,6,7-tetrahydropyrazolo[1,5-a]pyrazin-2-yl)-1,6-naphthyridin-5-yl]-1H-pyrazol-1-yl}cyclobutanecarbonitrile] | > 10000 | 33 | 4630 | 206 |  |  |  |  |
| N#CCC1(n2ccc(-c3nc(-c4cn[nH]c4)cc4ncccc34)n2)CN(CC(F)(F)F)C1 [Example 74, [3-{3-[7-(1H-pyrazol-4-yl)-1,6-naphthyridin-5-yl]-1H-pyrazol-1-yl}-1-(2,2,2-trifluoroethyl)azetidin-3-yl]acetonitrile] | 9660 | 13 | 217 | 267 |  |  |  |  |
| CNS(=O)(=O)N1CC(CC#N)(n2ccc(-c3nc(-c4cnn(C)c4)cc4ncccc34)n2)C1 [Example 109, 3-(cyanomethyl)-N-methyl-3-{3-[7-(1-methyl-1H-pyrazol-4-yl)-1,6-naphthyridin-5-yl]-1H-pyrazol-1-yl}azetidine-1-sulfonamide] | > 10000 | 68 | 2370 | 378 |  |  |  |  |
| N#CC[C@]1(n2ccc(-c3nc(-c4cc(CO)[nH]n4)cc4ncccc34)n2)C[C@@H](C#N)C1 [Example 49, cis-3-(cyanomethyl)-3-(3-{7-[5-(hydroxymethyl)-1H-pyrazol-3-yl]-1,6-naphthyridin-5-yl}-1H-pyrazol-1-yl)cyclobutanecarbonitrile] | 2320 | 7 | 42 | 16 |  |  |  |  |
| CS(=O)(=O)N1CC(CC#N)(n2ccc(-c3nc(-c4c[nH]c5cccnc45)cc4ncccc34)n2)C1 [Example 160, [1-(methylsulfonyl)-3-{3-[7-(1H-pyrrolo[3,2-b]pyridin-3-yl)-1,6-naphthyridin-5-yl]-1H-pyrazol-1-yl}azetidin-3-yl]acetonitrile] | > 10000 | 795 | > 10000 | 5570 |  |  |  |  |
| CO[C@H]1C[C@](CC#N)(n2ccc(-c3nc(-c4cc(N)[nH]n4)cc4ncccc34)n2)C1 [Example 53, (trans-1-{3-[7-(5-amino-1H-pyrazol-3-yl)-1,6-naphthyridin-5-yl]-1H-pyrazol-1-yl}-3-methoxycyclobutyl)acetonitrile] | > 10000 | 26 | 654 | 396 |  |  |  |  |
| CS(=O)(=O)N1CC(CC#N)(n2ccc(-c3nc(-c4ccc(S(N)(=O)=O)nc4)cc4ncccc34)n2)C1 [Example 209, 5-(5-{1-[3-(cyanomethyl)-1-(methylsulfonyl)azetidin-3-yl]-1H-pyrazol-3-yl}-1,6-naphthyridin-7-yl)pyridine-2-sulfonamide] | > 10000 | 51 | 1940 | 433 |  |  |  |  |
| N#CCC1(n2ccc(-c3nc(-c4ccnc(N)c4)cc4ncccc34)n2)CC(C#N)C1 (stereo not drawn) [Example 199, trans-3-{3-[7-(2-aminopyridin-4-yl)-1,6-naphthyridin-5-yl]-1H-pyrazol-1-yl}-3-(cyanomethyl)cyclobutanecarbonitrile] | > 10000 | 20 | 337 | 199 |  |  |  |  |
| CC(=O)Nc1cc(-c2cc3ncccc3c(-c3ccn(C4(CC#N)CN(S(C)(=O)=O)C4)n3)n2)cnc1C [Example 228, N-[5-(5-{1-[3-(cyanomethyl)-1-(methylsulfonyl)azetidin-3-yl]-1H-pyrazol-3-yl}-1,6-naphthyridin-7-yl)-2-methylpyridin-3-yl]acetamide] | > 10000 | 704 | 4350 | 6630 |  |  |  |  |
| CS(=O)(=O)N1CC(CC#N)(n2ccc(-c3nc(-c4cnc5cn[nH]c5c4)cc4ncccc34)n2)C1 [Example 166, [1-(methylsulfonyl)-3-{3-[7-(1H-pyrazolo[4,3-b]pyridin-6-yl)-1,6-naphthyridin-5-yl]-1H-pyrazol-1-yl}azetidin-3-yl]acetonitrile] | > 10000 | 44 | 7380 | 728 |  |  |  |  |
| N#CCC1(n2ccc(-c3nc(-c4ccn[nH]4)cc4ncccc34)n2)CC(CO)C1 (stereo not drawn) [Example 29, [cis-3-(hydroxymethyl)-1-{3-[7-(1H-pyrazol-5-yl)-1,6-naphthyridin-5-yl]-1H-pyrazol-1-yl}cyclobutyl]acetonitrile] | > 10000 | 437 | 3800 | 2340 |  |  |  |  |
| N#CCC1(n2ccc(-c3nc(-c4cc[nH]n4)cc4ncccc34)n2)CC2(COC2)C1 [Example 37, (6-{3-[7-(1H-pyrazol-3-yl)-1,6-naphthyridin-5-yl]-1H-pyrazol-1-yl}-2-oxaspiro[3.3]hept-6-yl)acetonitrile] | > 10000 | 369 | 4280 | 2830 |  |  |  |  |
| N#CC[C@]1(n2ccc(-c3nc(-c4cn[nH]c4)cc4ncccc34)n2)C[C@@H](c2ccn[nH]2)C1 [Example 85, [cis-3-(1H-pyrazol-5-yl)-1-{3-[7-(1H-pyrazol-4-yl)-1,6-naphthyridin-5-yl]-1H-pyrazol-1-yl}cyclobutyl]acetonitrile] | 5240 | 30 | 166 | 103 |  |  |  |  |
